# Reference: patent publication US9198894B2, “Uses of 15-benzylidene-14-deoxy-11,12-didehydroandrographolide derivatives in the preparation of antineoplastic drugs” (Zhengzhou University, priority 2010, dated 2015)
# pIC50: −log10 of the molar value. Like-named read-outs stand apart in the source and are kept apart here. Marks after values point to notes of the source that are not given here.
# Key:
# [1] = tested on: Hela human cervical carcinoma; test: Colony formation assay, Hela; format: cell-based; conditions: Hela
# Method: (§1) 1) Cell lines: Cell lines of SGC-7901 human gastric cancer, A549 human lung adenocarcinoma and Hela human cervical carcinoma were purchased from the Type Culture Collection of the Chinese Academy of Sciences, Shanghai, China.
# (§2) 3) Method: Colony formation assay was used. The cells were trypsinized to generate a single-cell suspension and seeded in a 6-well plate at a density of 100 cells/well, then drug-containing medium was added to the well to make the final concentration of compound to 0, 1.25, 2.50, 5.00, 7.50, 10.00 μmol/L, respectively. The experiments were performed in duplicate, and the cells were cultured at 37 in a humidified atmosphere with 5% CO2. Terminate cell culture when the clones can be seen in the culture plate, then remove the culture medium, and wash twice with PBS, fix the cells with methanol (5 ml/well) for 15 min and stain the cells with hematoxylin-eosin stain. The number of clones which comprised more than 50 cells was counted under a TS100-F-PH microscope (Nikon Company, Japan). Calculate relative colony formation ratio (%) and the IC50 values. Relative colony formation ratio (%)=(colony number of drug-administration well/colony number of control well)×100%.
# [2] = tested on: A549 human lung adenocarcinoma; test: Colony formation assay, A549; format: cell-based
# Method: as §1, §2
# [3] = tested on: SGC-7901 human gastric adenocarcinoma cells; test: Wound healing (two-dimensional migration) assay, SGC-7901; format: cell-based; conditions: SGC-7901, 10.00 μmol/l, 36 h (FIG. 1D)
# Method: (§3) 1) Cell lines: Cell lines of 5637 human bladder carcinoma, Eca-109 human esophageal carcinoma, HT29 human colon cancer, SGC-7901 human gastric cancer, A549 human lung adenocarcinoma and PC-3 human prostate carcinoma were purchased from the Type Culture Collection of the Chinese Academy of Sciences, Shanghai, China.
# 3) Methods: The cells were trypsinized to generate a single-cell suspension and seeded in 96-well plates (200 μl/well), and incubated with medium containing 10% fetal bovine serum at 37 in a humidified atmosphere with 5% CO2. Following a 24 h incubation, the cells were starved for an additional 12 h in low-serum media (1% FBS). The cultures of Eca-109, HT29, 5637, SGC-7901, A549 and PC-3 were then scratched away with a 200-μl plastic pipette tip and rinsed twice with PBS to remove wound-derived loose and dislodged cells. […] The average scraped area in each well under each treatment condition was measured, and the percentage of inhibition against cell migration was calculated. % of inhibition=1−(A0−At)/(A′0−A′t)×100%, where, A0 and At are the areas of wound with compound treatment measured immediately and 24 or 36 h post-injury, respectively; A′0 and A′t are the areas of wound without compound treatment measured immediately and 24 or 36 h post-injury, respectively.
# [4] = tested on: SGC-7901 human gastric cancer; test: Colony formation assay, SGC-7901; format: cell-based
# Method: as §1, §2
# [5] = tested on: ECV304 human vascular endothelial cells; test: Two-dimensional migration of ECV304 (wound healing); format: cell-based; conditions: 10.00 μmol/L (FIG. 2A)
# [6] = tested on: 5637 human urinary bladder cancer cells; test: Wound healing (two-dimensional migration) assay, 5637; format: cell-based; conditions: 5637, 10.00 μmol/l, 24 h (FIG. 1C)
# Method: as §3
# (§4) 3) Methods: The cells were trypsinized to generate a single-cell suspension and seeded in 96-well plates (200 μl/well), and incubated with medium containing 10% fetal bovine serum at 37 in a humidified atmosphere with 5% CO2. Following a 24 h incubation, the cells were starved for an additional 12 h in low-serum media (1% FBS). The cultures of Eca-109, HT29, 5637, SGC-7901, A549 and PC-3 were then scratched away with a 200-μl plastic pipette tip and rinsed twice with PBS to remove wound-derived loose and dislodged cells. The cells were cultured in replaced medium without or with compounds at final concentrations of 0, 2.50, 5.00 and 10.00 μmol/L, respectively. At least seven randomly selected views along the scraped line in each well were photographed immediately and 24 h and 36 h after incubation using a digital camera at 50× magnification. The average scraped area in each well under each treatment condition was measured, and the percentage of inhibition against cell migration was calculated. % of inhibition=1−(A0−At)/(A′0−A′t)×100%, where, A0 and At are the areas of wound with compound treatment measured immediately and 24 or 36 h post-injury, respectively; A′0 and A′t are the areas of wound without compound treatment measured immediately and 24 or 36 h post-injury, respectively.
# TNF-α = format: in vivo, mouse; conditions: C57BL/6 mice, mean ± s, n = 5
# [7] = format: in vivo, mouse; conditions: C57BL/6 mice, before vs 24 d after administration
# Method: (§5) 4) Method: B16-F10 cells in logarithmic growth phase were trypsinized, then resuspended in RPMI1640 medium containing 10% fetal bovine serum and centrifuged at 1000 rpm for 5 min. The supernatant was removed and sterile PBS was added to prepare single-cell suspension (10^7/mL). The murine melanoma lung metastasis model was established in mice via caudal vein injection of B16-F10 cells (0.2 ml/mouse). Mice were randomly divided into 4 groups (n=5) according to body weight, and 24 h later they were administrated intragastrically (ig; 0.2 ml/10 g) once a day continuously for 24 d with vehicle (tumor control group), Cyc (30 mg/kg), compound 3 at 0.85 mmol/kg and 1.10 mmol/kg. Mice were weighed and blood was collected by removing the eyeball at 24 h after the last administration. Sacrificed the mice, removed the lung and counted the number of melanoma nodules in lungs of mice under an anatomical lens. Serum obtained after centrifugation at 3000 rpm for 20 min (3K30 refrigerated centrifuge, Sigma, USA) was conserved at −20° C. Levels of TNF-α and IL-1β in serum were measured by ELISA method, which were performed in accordance with the instructions of the kits.
# [8] = tested on: B16-F10 mouse melanoma cells; format: in vivo; conditions: B16-F10, C57BL/6 mice; for Lung index / Nodule number (melanoma nodules in lungs): mean ± s, n = 5
# Method: 1) Animals: A total of 20 C57BL/6 male mice of clean grade [Number of Animal License: SCXK (Xiang) 2009-0004], weighing 18-22 g, were purchased from Hunan Slca Jingda Experimental Animal Center Company, Ltd., China.
# 2) Cells: B16-F10 mouse melanoma cells were purchased from Nanjing KeyGen Biotech. Co. Ltd., China.
# as §5
# Data were expressed as mean±SD and statistical analysis was performed by SPSS Statistics 17.0 using a one-way analysis of variance (ANOVA) followed by unpaired t-test. A value of P<0.05 was considered statistically significant. The inhibition ratio (IR %) of lung metastasis was calculated as follows: IR %=(Nc−Nt)/Nc×100%, where Nc is the average number of nodules in lung tissues of vehicle, and Nt is that of mice treated with drugs.
# [9] = tested on: A549 human lung carcinoma cells; test: Wound healing (two-dimensional migration) assay, A549; format: cell-based; conditions: A549, 10.00 μmol/l, 36 h (FIG. 1E)
# Method: as §3, §4
# [10] = tested on: Eca-109 human esophageal carcinoma cells; test: Wound healing (two-dimensional migration) assay, Eca-109; format: cell-based; conditions: Eca-109, 10.00 μmol/l, 24 h (FIG. 1A)
# Method: as §3, §4
# [11] = read-out: Inhibition against tumor cell colony formation IC50
compound,measurement,setting,value
"C=C1CCC2C(C)(CO)C(O)CCC2(C)C1C=CC1=CC(=Cc2ccc(Cl)cc2)OC1=O (centres unmarked) [Compound 2, 15-p-chlorobenzylidene-14-deoxy-11,12-didehydro-andrographolide]",Inhibition of colony formation compared with andrographolide,[1],remarkably stronger than that of andrographolide
same,pIC50,[1]; [11],5.86
same,Inhibition of colony formation compared with andrographolide,[2],remarkably stronger than that of andrographolide
same,pIC50,[2]; [11],5.85
same,Inhibitory effect on two-dimensional migration,[3],much stronger than that of other tumor cells
same,Inhibition of colony formation compared with andrographolide,[4],remarkably stronger than that of andrographolide
same,pIC50,[4]; [11],5.68
same,Inhibition of two-dimensional migration of ECV304,[5],the most significant one
same,Inhibitory effect on two-dimensional migration,[6],much stronger than that of other tumor cells
"C=C1CCC2C(C)(COC(=O)c3cccnc3)C(OC(=O)c3cccnc3)CCC2(C)C1C=CC1=CC(=Cc2ccc(Cl)cc2)OC1=O (centres unmarked) [Compound 3, 15-p-chlorobenzylidene-14-deoxy-11,12-didehydro-3,19-dinicotinate andrographolide]",TNF-α in serum,TNF-α; 0.85 mmol/kg ig 24 d,0.52 ± 5.90
same,TNF-α in serum,TNF-α; 1.10 mmol/kg ig 24 d,11.11 ± 5.96
same,Average net increase in body weight,[7]; 0.85 mmol/kg ig,1.64 g
same,Average net increase in body weight,[7]; 1.10 mmol/kg ig,2.00 g
same,IR (%) of lung metastasis,[8]; 0.85 mmol/kg ig 24 d,58.04%
same,IR (%) of lung metastasis,"[8]; 0.85 mmol/kg ig 24 d, listed as compound 3",58.04%
same,Lung index,[8]; 0.85 mmol/kg ig 24 d,6.19 ± 0.76 mg/g
same,Nodule number (melanoma nodules in lungs),[8]; 0.85 mmol/kg ig 24 d,35.25 ± 14.45
same,IR (%) of lung metastasis,[8]; 1.10 mmol/kg ig 24 d,65.18%
same,IR (%) of lung metastasis,"[8]; 1.10 mmol/kg ig 24 d, listed as compound 3",65.18%
same,Lung index,[8]; 1.10 mmol/kg ig 24 d,6.39 ± 0.57 mg/g
same,Nodule number (melanoma nodules in lungs),[8]; 1.10 mmol/kg ig 24 d,29.25 ± 881**^∇
same,Inhibitory effect on two-dimensional migration,[9],much stronger than that of other tumor cells
same,Inhibitory effect on two-dimensional migration,[10],much stronger than that of other tumor cells
